Molecular target: T1, human TRPM8 (Homo sapiens, UniProt Q7Z2W7)
T1 construct: expressed in transfected cells; host or cells: Chinese hamster ovary (CHO) cells, T-REx tetracycline-inducible expression system (Invitrogen); co-transfected with pcDNA3.1 aequorin
Assay: Luminescence readout assay for measuring intracellular calcium (aequorin, CHO cells expressing human TRPM8; icilin, L-menthol or cold activation)
Type: cell-based
Conditions: not given
In short: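 Activation was by 1 μM icilin, 100 μM L-menthol (test compound 2.5 min ahead) or cold buffer below 10° C (compound 1 min ahead). Calcium rise measured as aequorin luminescence in CHO cells with tetracycline-inducible human TRPM8.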

T1 sequence (Q7Z2W7 whole entry): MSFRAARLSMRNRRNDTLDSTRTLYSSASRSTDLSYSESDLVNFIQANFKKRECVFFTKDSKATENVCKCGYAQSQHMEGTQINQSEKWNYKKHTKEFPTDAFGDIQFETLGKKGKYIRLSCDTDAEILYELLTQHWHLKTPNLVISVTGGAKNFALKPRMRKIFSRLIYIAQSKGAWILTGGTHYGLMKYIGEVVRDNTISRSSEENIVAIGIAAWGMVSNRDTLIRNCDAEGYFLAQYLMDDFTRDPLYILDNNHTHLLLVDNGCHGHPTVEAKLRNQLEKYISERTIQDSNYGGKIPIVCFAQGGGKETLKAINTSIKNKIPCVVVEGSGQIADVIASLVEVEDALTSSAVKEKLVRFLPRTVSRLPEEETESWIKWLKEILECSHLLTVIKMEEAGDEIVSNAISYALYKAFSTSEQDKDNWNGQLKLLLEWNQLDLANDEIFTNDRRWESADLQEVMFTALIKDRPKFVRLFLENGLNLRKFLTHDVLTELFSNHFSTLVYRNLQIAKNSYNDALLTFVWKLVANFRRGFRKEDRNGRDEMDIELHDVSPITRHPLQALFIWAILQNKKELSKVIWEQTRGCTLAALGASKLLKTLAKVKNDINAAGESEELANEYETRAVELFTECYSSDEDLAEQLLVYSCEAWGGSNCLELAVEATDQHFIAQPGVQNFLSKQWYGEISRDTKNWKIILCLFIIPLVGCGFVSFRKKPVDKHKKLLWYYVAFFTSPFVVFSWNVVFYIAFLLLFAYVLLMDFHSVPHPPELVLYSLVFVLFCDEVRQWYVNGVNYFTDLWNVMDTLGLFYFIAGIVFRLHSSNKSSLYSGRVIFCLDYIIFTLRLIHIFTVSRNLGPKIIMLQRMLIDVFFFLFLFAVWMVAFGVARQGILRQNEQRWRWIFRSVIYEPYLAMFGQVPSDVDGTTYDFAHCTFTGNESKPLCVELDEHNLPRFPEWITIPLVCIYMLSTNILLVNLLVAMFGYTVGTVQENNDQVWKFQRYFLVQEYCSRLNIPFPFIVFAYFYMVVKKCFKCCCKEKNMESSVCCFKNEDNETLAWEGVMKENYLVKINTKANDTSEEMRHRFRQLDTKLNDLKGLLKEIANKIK

**Q.** `O=C1CCN(C(=O)N[C@]2(c3ccc(OC(F)(F)F)c(F)c3)CCOc3cccnc32)CC1` [Example 103, (S)-N-(4-(3-fluoro-4-(trifluoromethoxy)phenyl)-3,4-dihydro-2H-pyrano[3,2-b]pyridin-4-yl)-4-oxopiperidine-1-carboxamide] was tested. Which IC50 did it give?
**A.** Its IC50 is 278 nM.

Same assay, conditions: CHO cells expressing human TRPM8, icilin activation (1 μM), aequorin luminescence; read-out: hTRPM8 IC50

**Q.** `O=C(Nc1ccncn1)N[C@]1(c2ccc(OC(F)(F)F)c(F)c2)CCOc2cccnc21` [Example 89, (S)-1-(4-(3-fluoro-4-(trifluoromethoxy)phenyl)-3,4-dihydro-2H-pyrano[3,2-b]pyridin-4-yl)-3-(pyrimidin-4-yl)urea] was tested. Which IC50 did it give?
**A.** Its IC50 is 58 nM.

**Q.** `COC(=O)c1ccc(NC(=O)N[C@]2(c3ccc(OC(F)(F)F)c(F)c3)CCOc3cccnc32)cc1` [Example 90, (S)-methyl 4-(3-(4-(3-fluoro-4-(trifluoromethoxy)phenyl)-3,4-dihydro-2H-pyrano[3,2-b]pyridin-4-yl)ureido)benzoate] was tested. Which IC50 did it give?
**A.** Its IC50 is 36 nM.

**Q.** How did the IC50 turn out when `COC(=O)c1cccc(NC(=O)N[C@]2(c3ccc(OC(F)(F)F)c(F)c3)CCOc3cccnc32)c1` [Example 91, (S)-methyl 3-(3-(4-(3-fluoro-4-(trifluoromethoxy)phenyl)-3,4-dihydro-2H-pyrano[3,2-b]pyridin-4-yl)ureido)benzoate] was run?
**A.** Its IC50 is 19 nM.

**Q.** How did the IC50 turn out when `O=C(Nc1cccnc1)N[C@]1(c2ccc(OC(F)(F)F)c(F)c2)CCOc2cccnc21` [Example 92, (S)-1-(4-(3-fluoro-4-(trifluoromethoxy)phenyl)-3,4-dihydro-2H-pyrano[3,2-b]pyridin-4-yl)-3-(pyridin-3-yl)urea] was run?
**A.** Its IC50 is 54 nM.

**Q.** For `O=C(Nc1cccnc1Br)N[C@]1(c2ccc(OC(F)(F)F)c(F)c2)CCOc2cccnc21` [Example 93, (S)-1-(2-bromopyridin-3-yl)-3-(4-(3-fluoro-4-(trifluoromethoxy)phenyl)-3,4-dihydro-2H-pyrano[3,2-b]pyridin-4-yl)urea], which IC50 is on record?
**A.** Its IC50 is 22 nM.

**Q.** Which IC50 does the source give for `O=C(Nc1cnccc1Br)N[C@]1(c2ccc(OC(F)(F)F)c(F)c2)CCOc2cccnc21` [Example 94, (S)-1-(4-bromopyridin-3-yl)-3-(4-(3-fluoro-4-(trifluoromethoxy)phenyl)-3,4-dihydro-2H-pyrano[3,2-b]pyridin-4-yl)urea] here?
**A.** Its IC50 is 230 nM.

**Q.** For `O=C(Nc1ccccn1)N[C@]1(c2ccc(OC(F)(F)F)c(F)c2)CCOc2cccnc21` [Example 95, (S)-1-(4-(3-fluoro-4-(trifluoromethoxy)phenyl)-3,4-dihydro-2H-pyrano[3,2-b]pyridin-4-yl)-3-(pyridin-2-yl)urea], which IC50 is on record?
**A.** The IC50 was 94 nM.

**Q.** Which IC50 does the source give for `O=C(Nc1ccncc1)N[C@]1(c2ccc(OC(F)(F)F)c(F)c2)CCOc2cccnc21` [Example 96, (S)-1-(4-(3-fluoro-4-(trifluoromethoxy)phenyl)-3,4-dihydro-2H-pyrano[3,2-b]pyridin-4-yl)-3-(pyridin-4-yl)urea] here?
**A.** Its IC50 is 6 nM.

**Q.** How did the IC50 turn out when `O=C(Nc1cc(F)c(O)c(F)c1)N[C@]1(c2ccc(OC(F)(F)F)c(F)c2)CCOc2cccnc21` [Example 97, (S)-1-(3,5-difluoro-4-hydroxyphenyl)-3-(4-(3-fluoro-4-(trifluoromethoxy)phenyl)-3,4-dihydro-2H-pyrano[3,2-b]pyridin-4-yl)urea] was run?
**A.** Its IC50 is 159 nM.

**Q.** Which IC50 does the source give for `O=C(N[C@]1(c2ccc(OC(F)(F)F)c(F)c2)CCOc2cccnc21)N1CCCCC1` [Example 98, (S)-N-(4-(3-fluoro-4-(trifluoromethoxy)phenyl)-3,4-dihydro-2H-pyrano[3,2-b]pyridin-4-yl)piperidine-1-carboxamide] here?
**A.** The IC50 was 23 nM.

**Q.** With `COC(=O)C1CCN(C(=O)N[C@]2(c3ccc(OC(F)(F)F)c(F)c3)CCOc3cccnc32)CC1` [Example 99, (S)-methyl 1-((4-(3-fluoro-4-(trifluoromethoxy)phenyl)-3,4-dihydro-2H-pyrano[3,2-b]pyridin-4-yl)carbamoyl)piperidine-4-carboxylate] as the compound, how does the IC50 read?
**A.** Its IC50 is 106 nM.

**Q.** For `O=C(N[C@]1(c2ccc(OC(F)(F)F)c(F)c2)CCOc2cccnc21)N1CCC(F)(F)CC1` [Example 100], which IC50 is on record?
**A.** Its IC50 is 187 nM.

**Q.** `O=C(N[C@]1(c2ccc(OC(F)(F)F)c(F)c2)CCOc2cccnc21)N1CCOCC1` [Example 101, (S)-N-(4-(3-fluoro-4-(trifluoromethoxy)phenyl)-3,4-dihydro-2H-pyrano[3,2-b]pyridin-4-yl)morpholine-4-carboxamide] was tested. Which IC50 did it give?
**A.** The IC50 was 760 nM.

**Q.** Which IC50 does the source give for `O=C(N[C@]1(c2ccc(OC(F)(F)F)c(F)c2)CCOc2cccnc21)N1CCC(O)CC1` [Example 102, (S)-N-(4-(3-fluoro-4-(trifluoromethoxy)phenyl)-3,4-dihydro-2H-pyrano[3,2-b]pyridin-4-yl)-4-hydroxypiperidine-1-carboxamide] here?
**A.** Its IC50 is 218 nM.

**Q.** How did the IC50 turn out when `O=C(N[C@]1(c2ccc(OC(F)(F)F)c(F)c2)CCOc2cccnc21)N1CCCC1` [Example 104, (S)-N-(4-(3-fluoro-4-(trifluoromethoxy)phenyl)-3,4-dihydro-2H-pyrano[3,2-b]pyridin-4-yl)pyrrolidine-1-carboxamide] was run?
**A.** Its IC50 is 85 nM.

**Q.** `O=C(N[C@]1(c2ccc(OC(F)(F)F)c(F)c2)CCOc2cccnc21)N1CCC1` [Example 105, (S)-N-(4-(3-fluoro-4-(trifluoromethoxy)phenyl)-3,4-dihydro-2H-pyrano[3,2-b]pyridin-4-yl)azetidine-1-carboxamide] was tested. Which IC50 did it give?
**A.** Its IC50 is 404 nM.

**Q.** `O=C(Nc1ccccc1C(=O)O)N[C@]1(c2ccc(OC(F)(F)F)c(F)c2)CCOc2cccnc21` [Example 106, (S)-2-(3-(4-(3-fluoro-4-(trifluoromethoxy)phenyl)-3,4-dihydro-2H-pyrano[3,2-b]pyridin-4-yl)ureido)benzoic acid] was tested. Which IC50 did it give?
**A.** The IC50 was 39 nM.

**Q.** Which IC50 does the source give for `O=C(Nc1cccc(C(=O)O)c1)N[C@]1(c2ccc(OC(F)(F)F)c(F)c2)CCOc2cccnc21` [Example 107, (S)-3-(3-(4-(3-fluoro-4-(trifluoromethoxy)phenyl)-3,4-dihydro-2H-pyrano[3,2-b]pyridin-4-yl)ureido)benzoic acid] here?
**A.** Its IC50 is 150 nM.

**Q.** With `O=C(Nc1ccc(C(=O)O)cc1)N[C@]1(c2ccc(OC(F)(F)F)c(F)c2)CCOc2cccnc21` [Example 108, (S)-4-(3-(4-(3-fluoro-4-(trifluoromethoxy)phenyl)-3,4-dihydro-2H-pyrano[3,2-b]pyridin-4-yl)ureido)benzoic acid] as the compound, how does the IC50 read?
**A.** The IC50 was 386 nM.

**Q.** `O=C(Nc1ccc(-c2noc(=O)[nH]2)nc1)N[C@]1(c2ccc(OC(F)(F)F)c(F)c2)CCOc2cccnc21` [Example 109, (S)-1-(4-(3-fluoro-4-(trifluoromethoxy)phenyl)-3,4-dihydro-2H-pyrano[3,2-b]pyridin-4-yl)-3-(6-(5-oxo-4,5-dihydro-1,2,4-oxadiazol-3-yl)pyridin-3-yl)urea] was tested. Which IC50 did it give?
**A.** The IC50 was 3060 nM.

**Q.** With `O=C(O)C1CCN(C(=O)N[C@]2(c3ccc(OC(F)(F)F)c(F)c3)CCOc3cccnc32)CC1` [Example 110] as the compound, how does the IC50 read?
**A.** Its IC50 is 585 nM.

**Q.** Which IC50 does the source give for `N#CCc1ccc([C@@]2(NC(=O)c3ccc(F)cc3)CCOc3cccnc32)cc1` [Example 111, (S)—N-(4-(4-(cyanomethyl)phenyl)-3,4-dihydro-2H-pyrano[3,2-b]pyridin-4-yl)-4-fluorobenzamide] here?
**A.** The IC50 was 1520 nM.

**Q.** For `O=C(N[C@]1(c2ccc(-c3ccccn3)cc2)CCOc2cccnc21)c1ccc(F)cc1` [Example 112, (S)-4-fluoro-N-(4-(4-(pyridin-2-yl)phenyl)-3,4-dihydro-2H-pyrano[3,2-b]pyridin-4-yl)benzamide], which IC50 is on record?
**A.** The IC50 was 233 nM.

**Q.** How did the IC50 turn out when `O=C(N[C@]1(c2ccc(-c3ccccc3)cc2)CCOc2cccnc21)c1ccc(F)cc1` [Example 113, (S)—N-(4-([1,1′-biphenyl]-4-yl)-3,4-dihydro-2H-pyrano[3,2-b]pyridin-4-yl)-4-fluorobenzamide] was run?
**A.** The IC50 was 53 nM.

**Q.** Which IC50 does the source give for `O=C(N[C@]1(c2ccc(-c3ccc(F)cc3)cc2)CCOc2cccnc21)c1ccc(F)cc1` [Example 114, (S)-4-fluoro-N-(4-(4′-fluoro-[1,1′-biphenyl]-4-yl)-3,4-dihydro-2H-pyrano[3,2-b]pyridin-4-yl)benzamide] here?
**A.** Its IC50 is 50 nM.

**Q.** With `O=C(N[C@]1(c2ccc(-c3cccnc3)cc2)CCOc2cccnc21)c1ccc(F)cc1` [Example 115, (S)-4-fluoro-N-(4-(4-(pyridin-3-yl)phenyl)-3,4-dihydro-2H-pyrano[3,2-b]pyridin-4-yl)benzamide] as the compound, how does the IC50 read?
**A.** The IC50 was 341 nM.

**Q.** `O=C(N[C@]1(c2ccc(-c3ccncc3)cc2)CCOc2cccnc21)c1ccc(F)cc1` [Example 116, (S)-4-fluoro-N-(4-(4-(pyridin-4-yl)phenyl)-3,4-dihydro-2H-pyrano[3,2-b]pyridin-4-yl)benzamide] was tested. Which IC50 did it give?
**A.** The IC50 was 284 nM.

**Q.** For `CCOc1cnc(-c2ccc([C@@]3(NC(=O)c4ccc(F)cc4)CCOc4cccnc43)cc2)cn1` [Example 117, (S)-N-(4-(4-(5-ethoxypyrazin-2-yl)phenyl)-3,4-dihydro-2H-pyrano[3,2-b]pyridin-4-yl)-4-fluorobenzamide], which IC50 is on record?
**A.** The IC50 was 73.7 nM.

**Q.** For `O=C(N[C@]1(c2ccc(-c3cccc(CO)c3)cc2)CCOc2cccnc21)c1ccc(F)cc1` [Example 118, (S)-4-fluoro-N-(4-(3′-(hydroxymethyl)-[1,1′-biphenyl]-4-yl)-3,4-dihydro-2H-pyrano[3,2-b]pyridin-4-yl)benzamide], which IC50 is on record?
**A.** Its IC50 is 2170 nM.

**Q.** With `CS(=O)(=O)c1ccc(-c2ccc([C@@]3(NC(=O)c4ccc(F)cc4)CCOc4cccnc43)cc2)cc1` [Example 119, (S)-4-fluoro-N-(4-(4′-(methylsulfonyl)-[1,1′-biphenyl]-4-yl)-3,4-dihydro-2H-pyrano[3,2-b]pyridin-4-yl)benzamide] as the compound, how does the IC50 read?
**A.** Its IC50 is 879 nM.

**Q.** `O=C(N[C@]1(c2ccc(-c3ccccc3O)cc2)CCOc2cccnc21)c1ccc(F)cc1` [Example 120, (S)-4-fluoro-N-(4-(2′-hydroxy-[1,1′-biphenyl]-4-yl)-3,4-dihydro-2H-pyrano[3,2-b]pyridin-4-yl)benzamide] was tested. Which IC50 did it give?
**A.** The IC50 was 524 nM.

**Q.** With `CC(=O)Nc1ccc(-c2ccc([C@@]3(NC(=O)c4ccc(F)cc4)CCOc4cccnc43)cc2)cc1` [Example 121, (S)-N-(4-(4′-acetamido-[1,1′-biphenyl]-4-yl)-3,4-dihydro-2H-pyrano[3,2-b]pyridin-4-yl)-4-fluorobenzamide] as the compound, how does the IC50 read?
**A.** The IC50 was 1250 nM.

— patent US20150031668A1, “CHROMAN DERIVATIVES AS TRPM8 INHIBITORS” (AMGEN INC., priority 2013, published 2015)
